Laboratory results taken from PubChem BioAssay AID540271 (Broad Institute, 2011).
The source made the active and inactive calls. The rule behind the calls is not given here.

Tested on: S. cerevisiae expressing PfHSP40, growth rescue, plate reader
Assay: S cerevisiae expressing PfHSP40, growth rescue, cherry pick dose confirmatory, plate reader (AID 540271);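 note: yeast growth read after three days of incubation at 30 °C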

| SMILES | AC50 |
| --- | --- |
| CC1(C(=O)OCC(=O)Nc2ccc3ccccc3c2)CC1(Cl)Cl (stereo not drawn) | 9.6 µM |
| C[C@H](O)[C@H]1CC[C@H]2[C@@H]3CCC4=CC(=O)CC[C@]4(C)[C@H]3CC[C@]12C | 6.85 µM |
| CCOC(=O)c1ccc(NC(=O)CC2OCCN(CC)C2=O)cc1 (stereo not drawn) | 4.89 µM |
| Fc1ccc(CCNC(=S)Nc2ccc(F)c(Cl)c2)cc1 | 7.64 µM |
| Oc1ccc(-c2nc3ccccc3s2)c(O)c1 | 7.43 µM |
| CCc1cc(SC#N)cc(C)c1NC(=O)CCl | 4.4 µM |
| O=[N+]([O-])c1ccc(Sc2cccc[n+]2[O-])c2nonc12 | 2.43 µM |
| O=C(Nc1ccccc1N1CCOCC1)c1cc2c(s1)CCCCC2 | 6.04 µM |
| O=C(CSc1nnc(-c2ccccc2O)n1Cc1ccccc1)NNC(=O)c1ccccc1O | 3.94 µM |
| COc1cccc(/C=N/NC(=O)c2nc(-c3ccccc3)cc(-c3ccccc3)n2)c1O | 3.51 µM |
| COC(=O)/C=C\C(=O)Nc1cccc([N+](=O)[O-])c1 | 1.83 µM |
| Cc1ccc([C@@H]2CC=C(C(=O)O)[C@H](c3ccc(Br)cc3)N2S(=O)(=O)c2ccccc2C)cc1 | 5.21 µM |
| CC(=O)C1=C(c2cccc([N+](=O)[O-])c2)N(C(C)=O)n2c(C)nnc2S1 | 2.7 µM |
| COc1ccc(O)c(C(=O)CC(=O)c2ccc(F)cc2)c1 | 0.977 µM |
| CC(C)=CCc1c(O)ccc(C(=O)Cc2ccccc2)c1O | 10.8 µM |
| Cc1ccc(C)c(/C=C/C(=O)c2ccccc(=O)c2O)c1 | 3.17 µM |
| COc1ccc(-c2cc(C(=O)NNC(=S)NC(=O)c3c(-c4ccccc4)noc3C)[nH]n2)cc1 | 2.69 µM |
| Cc1ccc(C)c(S(=O)(=O)N2CCN(Cc3ccc(O)c4ncccc34)CC2)c1 | 5.23 µM |
| O=C1Nc2c(Br)cccc2C1=O | 11.6 µM |
| Nc1nc2sc3c(c2c(=O)s1)CCCC3 | 3.58 µM |
| CCC(Oc1ccc(Br)cc1Cl)C(=O)Nc1nnc(C2CC2)s1 (stereo not drawn) | 4.51 µM |
| COc1cccc(C(=O)Nc2sc(C(C)C)cc2C(N)=O)c1OC | 5.46 µM |
| CN(C)c1nc(-c2ccccn2)nnc1-c1ccccc1 | 5.25 µM |
| O=NN(CCc1ccncc1)c1ccc(OCc2ccccc2)cc1 | 5.81 µM |

| SMILES | AC50 |
| --- | --- |
| CCc1ccccc1OCC(=O)Nc1nc(-c2cccnc2)cs1 | 1.84 µM |
| CC[C@@H](C(=O)[C@@H](C)[C@@H](O)[C@H](C)[C@@H]1O[C@@H]([C@@H](CC)C(=O)O)CC[C@@H]1C)[C@H]1O[C@]2(C=C[C@@H](O)[C@]3(CC[C@@](C)([C@H]4CC[C@](O)(CC)[C@H](C)O4)O3)O2)[C@H](C)C[C@@H]1C | 3 µM |
| FC(F)(F)c1nc(SCc2ccc(Cl)cc2Cl)n[nH]1 | 6.21 µM |
| O=C(NCc1ccncc1)c1ccccc1Nc1ccc(SC(F)F)cc1 | 5.31 µM |
| Oc1cccc2ccc(Nc3ccccn3)nc12 | 4.98 µM |
| CC(C)CNC(=O)COC(=O)c1ccc([N+](=O)[O-])cc1Cl | > 12 µM (inactive) |
| CC(C)CSc1n[nH]c(=S)s1 | 6.48 µM |
| CC(C)c1cc(-c2cc(C(=O)NCc3ccccc3)on2)nc(NCC2CC2)n1 | 5.24 µM |
| O=c1[nH]cc(F)c(=O)[nH]1 | 0.562 µM |
| CCc1cc(C(=O)Nc2nc(-c3ccccn3)cs2)sc1C | 4.3 µM |
| CCc1nc2ccccc2c(=O)n1NC(=O)c1c(O)c2ccccc2n(CC)c1=O | 5.74 µM |
| O=C1c2ccccc2NC(c2ccc(-c3ccc(C(F)(F)F)cc3)o2)N1O (stereo not drawn) | 2.4 µM |
| COc1ccc(-c2sc3ccccc3c2C#Cc2cncn2C)cc1 | 6.77 µM |
| Cc1noc2ncnc(SCc3ccc(C(F)(F)F)cc3)c12 | 7.67 µM |
| CCCCCCC(Cl)(Cn1ccnc1)c1ccccc1 (stereo not drawn) | 6.48 µM |
| Cc1ccc(O)c(-c2cc(-c3ccccc3C)[nH]n2)c1 | 5.42 µM |
| CCCC1CCC(c2ccc(/C(N)=N/O)cc2)CC1 (stereo not drawn) | > 12 µM (inactive) |
| CCCCc1ccc(-n2c(Cc3cccs3)n[nH]c2=S)cc1 | 6.45 µM |
| O=C1/C(=C/c2cccs2)SC(=S)N1NS(=O)(=O)c1ccccc1 | 3.9 µM |
| Clc1ccc(-c2n[nH]c3c2CCC3)cc1Cl | 5.64 µM |
| O=S(=O)(c1ccc(Cl)cc1)N1CCC2(CC1)OCCN2S(=O)(=O)c1cccs1 | 4.77 µM |
| CC1CCN(c2nc(-c3ccncc3)nc3ccccc23)CC1 | 7.47 µM |
| CCOC(=O)c1cccc2c1-c1ccccc1/C2=N/O | 6.3 µM |
| O=C(Nc1cc(Oc2ccc(Cl)cc2)cc([N+](=O)[O-])c1)c1ccco1 | > 12 µM (inactive) |

| SMILES | AC50 |
| --- | --- |
| Cn1ccsc1=NC(=O)c1ccc([N+](=O)[O-])o1 | > 12 µM (inactive) |
| COc1ccc(-c2csc(NC(=O)c3ccccc3F)c2C(=O)O)cc1 | 3.69 µM |
| CCCC(=O)NC(c1ccccc1OC)c1ccc2cccnc2c1O (stereo not drawn) | 1.7 µM |
| c1ccc(Cn2cc(-c3cccnc3)cn2)cc1 | 1.62 µM |
| O=c1c2ccccc2nc(-c2ccc(-c3ccccc3)cc2)n1-c1ccncc1 | 6.21 µM |
| COc1cc(/C=C2\SC(=S)N(NS(=O)(=O)c3ccc(C)cc3)C2=O)ccc1O | 7.05 µM |
| Cc1nn(CCC#N)c(N)c1C1(O)C(=O)Nc2c(Cl)cc(Cl)cc21 (stereo not drawn) | 7.66 µM |
| COc1ccc(N=N/C(=C\O)C(=O)c2cccs2)cc1 | 7.25 µM |
| CCCCNc1c(-c2cccc(-c3ccc(OC)cc3)c2)nc2ccc(C)cn12 | 5.67 µM |
| Cc1cc(/C=C2\SC(=S)NC2=O)c(C)n1-c1cccc(O)c1 | 9.83 µM |
| COc1cc2c(c(OC)c1OC)-c1ccc(O)c(=O)cc1[C@@H](NC(C)=O)CC2 | 1.87 µM |
| Cc1ccc(NC(=O)CN(C)C(=O)c2cccnc2Nc2cccc(C(F)(F)F)c2)cc1 | 4.74 µM |
| Cc1oc2c(c1C(=O)c1ccccc1)C(=O)C(=O)c1ccccc1-2 | 5.65 µM |
| CN(C)c1ccc(C=c2c3ccccc3n3c2cc(-c2ccc(Cl)cc2)[n+]3C)cc1 | 7.4 µM |
| Cc1ccc(NC2=C(NC(=O)c3ccccc3)C(=O)c3ccccc3C2=O)cc1Cl | 7.65 µM |
| O=C(N/N=C/c1cc(Cl)cc([N+](=O)[O-])c1O)c1ccccc1NS(=O)(=O)c1cccs1 | 1.04 µM |
| Cc1ccc2c(c1C)-c1c(ccc(C)c1C)C(=O)C2=O | 1.48 µM |
| Cc1c(C2(O)CCCCC2)[nH]c2ccc(C(F)(F)F)cc12 | 7.22 µM |
| O=C(CSc1nc2ccccc2s1)N/N=C/c1cc([N+](=O)[O-])ccc1O | 5.52 µM |
| N=c1c2c(-c3ccccc3)c(-c3ccccc3)n(Cc3ccco3)c2ncn1CCCn1ccnc1 | > 12 µM (inactive) |
| Cc1ccsc1/C=C/c1ccc2cccc(O)c2n1 | 3.48 µM |
| c1ccc(-c2ccc(OCCCn3cncn3)cc2)cc1 | 5.48 µM |
| Cc1ccc(CCNc2ncnc(Cl)c2N)cc1 | 4.48 µM |
| FC(F)(F)c1cccc(N2CCc3cn[nH]c32)c1 | 0.446 µM |

| SMILES | AC50 |
| --- | --- |
| N#Cc1c(-c2ccc(Cl)cc2)n(O)c2ccccc12 | 2.67 µM |
| CC1CCN(c2ccc3c(c2)S(=O)(=O)c2ccccc2C3=O)CC1 | 9.89 µM |
| Cc1cc(F)ccc1S(=O)(=O)N(C(=O)c1ccncc1)c1ccc(OC(=O)c2ccncc2)cc1 | 6.3 µM |
| COc1ccc(-c2oc3ccccc3c2C#Cc2cncn2C)cc1 | 4.94 µM |
| O=c1c(O)cccc2cc(O)c(O)c(O)c12 | 3.63 µM |
| O=P(Nc1cccnc1)(Oc1ccccc1Cl)Oc1ccccc1Cl | 6.5 µM |
| COc1cc([N+](=O)[O-])cc(/C=N/NC(=O)c2cncc(Br)c2)c1O | 4.36 µM |
| O=C(O/N=C(\c1ccccc1)c1ccncc1)c1ccccc1Cl | > 12 µM (inactive) |
| CCCCCCCCCCOC(=O)Cn1c(COc2ccccc2OC)[n+](C)c2ccccc21 | 6.39 µM |
| O=C(NNC(=O)c1cc(Cl)ccc1O)c1cccc(S(=O)(=O)N2CCOCC2)c1 | 5.28 µM |
| C=C(C)COc1ccc(-c2[nH]ncc2-c2ccc(Br)cc2)c(O)c1 | 4.66 µM |
| O=C(c1ccccc1)c1coc2c1C(=O)c1ccccc1C2=O | 11.7 µM |
| CCCCCCCc1ccc(-c2ccc(O)cc2)nc1 | 5.12 µM |
| O=C(CN1CC[n+]2c(-c3cccs3)csc21)c1ccc(-c2ccccc2)cc1 | 7.25 µM |
| Oc1c(Cl)c(Cl)c(Cl)c(Cl)c1Cl | 2.89 µM |
| CC12CC3(C)CC(C)(C1)CC(NC(=O)N1CCCC1)(C2)C3 | 1.7 µM |
| CCc1ccc(NC(=O)CSc2ccc(-c3ccccn3)nn2)cc1 | 2.44 µM |
| CNC1=C(N(C(C)=O)c2ccc(Br)cc2)C(=O)c2ccccc2C1=O | 6.77 µM |
| CCCCCCCCCCOC(=O)Cn1c(COc2ccccc2)[n+](C)c2ccccc21 | > 12 µM (inactive) |
| COc1cnc(-c2ccccn2)nc1Sc1ccc(C)cc1 | 5.97 µM |
| c1ccc(CSc2ccc(-c3ccccn3)nn2)nc1 | 4.49 µM |
